O=C(NC(Cc1cc(=O)[nH]c2ccccc12)C(=O)O)c1ccc(Cl)cc1 (stereo not given)
solubility (mole fraction)
Conditions | 278.15 K | 283.15 K | 288.15 K | 293.15 K | 298.15 K | 303.15 K | 308.15 K | 313.15 K | 318.15 K
in ethanol | 6.26e-05 | 6.92e-05 | 7.65e-05 | 8.61e-05 | 9.66e-05 | 0.000107 | 0.000118 | 0.000131 | 0.000143
in isopropanol | 2.41e-05 | 3.02e-05 | 3.87e-05 | 4.8e-05 | 5.92e-05 | 7.31e-05 | 8.91e-05 | 0.000107 | 0.000129
in n-propanol | 4.25e-05 | 5.08e-05 | 6e-05 | 7.03e-05 | 8.1e-05 | 9.38e-05 | 0.000107 | 0.000123 | 0.00014
in propylene glycol | 0.000182 | 0.000192 | 0.000207 | 0.000225 | 0.000247 | 0.000269 | 0.000293 | 0.000319 | 0.00035
in water | 3.46e-07 | 4.26e-07 | 5.29e-07 | 6.84e-07 | 8.68e-07 | 1.08e-06 | 1.3e-06 | 1.56e-06 | 1.87e-06
